# Reference: patent US12371428B2 (Exelixis, Inc., priority 2019, dated 2025)
# Read-outs that look alike come from different tables or passages of the source.
# What was measured:
# Type in all cases: cell-based
# [1] = target: AXL (phospho-AXL, Gas6-stimulated A-172 glioblastoma cells) (Homo sapiens (Human), UniProt P30530); test: AXL autophosphorylation ELISA in A-172 cells (Example E); details: cellular activity, read-out: Axl IC50
# Procedure, shortened: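 Phospho-AXL in lysates was quantified by ELISA, normalised to DMSO (100%) and reference inhibitor (0%) controls. IC50 by 4-parameter logistic fit.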
# [2] = target: Met (phospho-Met, HGF-stimulated PC-3 prostate cancer cells) (Homo sapiens (Human), UniProt P08581); test: Met autophosphorylation ELISA in PC-3 cells (Example F); details: cellular activity, read-out: c-Met IC50
# Procedure, shortened: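 Compounds were tested on HGF-stimulated PC-3 cells. After 24 h culture and 3 h serum starvation, cells got compound for 1 h and 100 ng/mL HGF for 10 min, and Met tyrosine phosphorylation was measured by ELISA.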
# [3] = target: KDR (phospho-KDR, VEGF165-stimulated HUVEC cells) (Homo sapiens (Human), UniProt P35968); test: KDR autophosphorylation ELISA in HUVEC cells (Example G); details: cellular activity
# Procedure, shortened: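 HUVEC cells, serum-starved 24 h, were treated 1 h with an 8-point compound dilution (0.3% DMSO) and then stimulated with 100 ng/mL VEGF165 for 5 min. Phospho-KDR in lysates was quantified by sandwich ELISA against a phospho-KDR standard. IC50 from a 4-parameter logistic fit, normalised between stimulated DMSO and unstimulated controls.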
# [4] = target: Mer (phospho-Mer, MERTK-transfected 293A cells) (Homo sapiens (Human), UniProt Q12866); test: Mer autophosphorylation ELISA in transient transfected 293A cells (Example H); details: cellular activity
# Procedure, shortened: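 Human MERTK transiently transfected into 293A cells; compounds as 8-point dose curve in serum-free medium (0.3% DMSO final), 1 h. Lysates assayed by phospho-Mer sandwich ELISA against phospho-Mer standard; DMSO = 100%, reference inhibitor = 0% activity; IC50 from 4-parameter logistic fit.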
# [5] = AXL autophosphorylation ELISA in A-172 cells
# [6] = Met autophosphorylation ELISA in PC-3 cells
# [7] = KDR autophosphorylation ELISA in HUVEC cells
# [8] = Mer autophosphorylation ELISA in transient transfected 293A cells
# Chain of Met (phospho-Met, HGF-stimulated PC-3 prostate cancer cells) (P08581 25-1390): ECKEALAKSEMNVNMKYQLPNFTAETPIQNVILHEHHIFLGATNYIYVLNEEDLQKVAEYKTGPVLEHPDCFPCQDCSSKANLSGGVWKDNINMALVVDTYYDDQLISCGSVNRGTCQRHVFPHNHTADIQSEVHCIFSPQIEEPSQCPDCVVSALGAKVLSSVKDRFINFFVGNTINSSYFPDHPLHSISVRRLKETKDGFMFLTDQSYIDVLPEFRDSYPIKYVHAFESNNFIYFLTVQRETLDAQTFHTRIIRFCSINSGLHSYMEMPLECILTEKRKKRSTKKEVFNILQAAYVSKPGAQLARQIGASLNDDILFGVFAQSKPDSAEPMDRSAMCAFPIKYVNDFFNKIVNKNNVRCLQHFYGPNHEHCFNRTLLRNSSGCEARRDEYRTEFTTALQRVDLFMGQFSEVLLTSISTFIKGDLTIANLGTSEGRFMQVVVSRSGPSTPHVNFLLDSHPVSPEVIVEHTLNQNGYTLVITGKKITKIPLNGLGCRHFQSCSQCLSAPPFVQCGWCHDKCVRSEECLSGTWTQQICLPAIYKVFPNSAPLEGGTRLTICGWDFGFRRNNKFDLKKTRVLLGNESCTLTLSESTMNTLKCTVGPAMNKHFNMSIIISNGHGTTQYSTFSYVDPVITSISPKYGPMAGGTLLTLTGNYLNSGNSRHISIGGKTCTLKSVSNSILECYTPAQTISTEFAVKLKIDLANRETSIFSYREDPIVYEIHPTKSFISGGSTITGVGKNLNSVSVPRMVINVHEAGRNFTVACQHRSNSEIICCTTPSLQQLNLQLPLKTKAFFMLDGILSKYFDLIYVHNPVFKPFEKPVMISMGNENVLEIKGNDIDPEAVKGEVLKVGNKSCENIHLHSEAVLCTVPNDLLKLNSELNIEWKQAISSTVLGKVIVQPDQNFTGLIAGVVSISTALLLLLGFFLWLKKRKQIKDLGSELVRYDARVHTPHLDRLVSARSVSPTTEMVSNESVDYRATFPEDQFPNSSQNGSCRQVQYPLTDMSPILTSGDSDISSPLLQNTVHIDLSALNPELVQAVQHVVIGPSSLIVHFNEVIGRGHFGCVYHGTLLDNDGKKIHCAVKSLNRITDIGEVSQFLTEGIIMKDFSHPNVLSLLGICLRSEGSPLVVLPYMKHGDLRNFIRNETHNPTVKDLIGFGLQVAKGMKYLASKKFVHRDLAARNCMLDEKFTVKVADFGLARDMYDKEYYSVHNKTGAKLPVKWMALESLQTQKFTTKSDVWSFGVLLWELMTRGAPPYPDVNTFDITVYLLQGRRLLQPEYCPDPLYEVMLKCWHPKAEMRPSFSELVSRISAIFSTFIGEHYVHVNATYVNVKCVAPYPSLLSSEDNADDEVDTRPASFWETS
# Chain of Mer (phospho-Mer, MERTK-transfected 293A cells) (Q12866 21-999): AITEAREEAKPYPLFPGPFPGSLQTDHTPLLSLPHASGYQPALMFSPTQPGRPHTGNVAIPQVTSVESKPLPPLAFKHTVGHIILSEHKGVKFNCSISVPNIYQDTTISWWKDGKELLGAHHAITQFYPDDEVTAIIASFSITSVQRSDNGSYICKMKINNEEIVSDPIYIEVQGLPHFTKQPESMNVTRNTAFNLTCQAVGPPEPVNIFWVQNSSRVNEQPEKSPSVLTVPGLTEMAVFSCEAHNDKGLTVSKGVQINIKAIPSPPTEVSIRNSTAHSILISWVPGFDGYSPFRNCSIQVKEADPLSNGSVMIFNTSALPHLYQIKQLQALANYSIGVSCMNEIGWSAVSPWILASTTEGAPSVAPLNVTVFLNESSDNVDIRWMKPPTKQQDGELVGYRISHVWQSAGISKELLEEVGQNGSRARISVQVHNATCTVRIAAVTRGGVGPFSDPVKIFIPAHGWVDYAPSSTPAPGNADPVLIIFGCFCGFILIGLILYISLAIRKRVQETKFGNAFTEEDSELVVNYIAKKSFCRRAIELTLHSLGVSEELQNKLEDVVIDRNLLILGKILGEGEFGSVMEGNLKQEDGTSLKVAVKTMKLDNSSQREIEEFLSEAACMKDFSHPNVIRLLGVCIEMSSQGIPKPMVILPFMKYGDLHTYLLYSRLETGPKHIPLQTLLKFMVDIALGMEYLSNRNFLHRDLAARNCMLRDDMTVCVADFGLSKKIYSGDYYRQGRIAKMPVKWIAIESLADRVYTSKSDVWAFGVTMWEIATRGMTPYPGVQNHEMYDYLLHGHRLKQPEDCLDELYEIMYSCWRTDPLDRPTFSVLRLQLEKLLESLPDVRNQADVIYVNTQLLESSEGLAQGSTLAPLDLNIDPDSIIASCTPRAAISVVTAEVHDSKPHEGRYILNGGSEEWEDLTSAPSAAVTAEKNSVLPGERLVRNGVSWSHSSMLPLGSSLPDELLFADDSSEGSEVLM
# Chain of AXL (phospho-AXL, Gas6-stimulated A-172 glioblastoma cells) (P30530 26-894): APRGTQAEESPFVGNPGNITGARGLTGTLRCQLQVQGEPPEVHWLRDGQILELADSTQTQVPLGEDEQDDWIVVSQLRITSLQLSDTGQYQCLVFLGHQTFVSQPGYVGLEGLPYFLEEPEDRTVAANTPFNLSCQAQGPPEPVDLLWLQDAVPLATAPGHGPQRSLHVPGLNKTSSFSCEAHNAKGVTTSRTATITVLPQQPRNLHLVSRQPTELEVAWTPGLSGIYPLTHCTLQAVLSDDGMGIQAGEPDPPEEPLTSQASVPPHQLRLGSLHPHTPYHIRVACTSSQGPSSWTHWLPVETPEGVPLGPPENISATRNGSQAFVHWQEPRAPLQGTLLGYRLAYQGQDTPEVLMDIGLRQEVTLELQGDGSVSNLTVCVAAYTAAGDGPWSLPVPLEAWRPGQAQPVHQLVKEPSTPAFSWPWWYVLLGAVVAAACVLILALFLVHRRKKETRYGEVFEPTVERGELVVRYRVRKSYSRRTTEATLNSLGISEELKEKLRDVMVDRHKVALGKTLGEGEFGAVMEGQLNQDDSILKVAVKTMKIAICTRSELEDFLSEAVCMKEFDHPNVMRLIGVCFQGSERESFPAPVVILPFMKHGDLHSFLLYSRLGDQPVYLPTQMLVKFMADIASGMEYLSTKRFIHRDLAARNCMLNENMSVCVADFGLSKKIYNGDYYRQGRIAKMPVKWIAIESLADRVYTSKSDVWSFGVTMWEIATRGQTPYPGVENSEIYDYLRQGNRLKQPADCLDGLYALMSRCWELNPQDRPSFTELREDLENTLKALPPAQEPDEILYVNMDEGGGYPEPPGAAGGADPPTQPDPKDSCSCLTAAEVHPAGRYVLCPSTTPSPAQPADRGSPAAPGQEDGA
# Chain of KDR (phospho-KDR, VEGF165-stimulated HUVEC cells) (P35968 20-1356): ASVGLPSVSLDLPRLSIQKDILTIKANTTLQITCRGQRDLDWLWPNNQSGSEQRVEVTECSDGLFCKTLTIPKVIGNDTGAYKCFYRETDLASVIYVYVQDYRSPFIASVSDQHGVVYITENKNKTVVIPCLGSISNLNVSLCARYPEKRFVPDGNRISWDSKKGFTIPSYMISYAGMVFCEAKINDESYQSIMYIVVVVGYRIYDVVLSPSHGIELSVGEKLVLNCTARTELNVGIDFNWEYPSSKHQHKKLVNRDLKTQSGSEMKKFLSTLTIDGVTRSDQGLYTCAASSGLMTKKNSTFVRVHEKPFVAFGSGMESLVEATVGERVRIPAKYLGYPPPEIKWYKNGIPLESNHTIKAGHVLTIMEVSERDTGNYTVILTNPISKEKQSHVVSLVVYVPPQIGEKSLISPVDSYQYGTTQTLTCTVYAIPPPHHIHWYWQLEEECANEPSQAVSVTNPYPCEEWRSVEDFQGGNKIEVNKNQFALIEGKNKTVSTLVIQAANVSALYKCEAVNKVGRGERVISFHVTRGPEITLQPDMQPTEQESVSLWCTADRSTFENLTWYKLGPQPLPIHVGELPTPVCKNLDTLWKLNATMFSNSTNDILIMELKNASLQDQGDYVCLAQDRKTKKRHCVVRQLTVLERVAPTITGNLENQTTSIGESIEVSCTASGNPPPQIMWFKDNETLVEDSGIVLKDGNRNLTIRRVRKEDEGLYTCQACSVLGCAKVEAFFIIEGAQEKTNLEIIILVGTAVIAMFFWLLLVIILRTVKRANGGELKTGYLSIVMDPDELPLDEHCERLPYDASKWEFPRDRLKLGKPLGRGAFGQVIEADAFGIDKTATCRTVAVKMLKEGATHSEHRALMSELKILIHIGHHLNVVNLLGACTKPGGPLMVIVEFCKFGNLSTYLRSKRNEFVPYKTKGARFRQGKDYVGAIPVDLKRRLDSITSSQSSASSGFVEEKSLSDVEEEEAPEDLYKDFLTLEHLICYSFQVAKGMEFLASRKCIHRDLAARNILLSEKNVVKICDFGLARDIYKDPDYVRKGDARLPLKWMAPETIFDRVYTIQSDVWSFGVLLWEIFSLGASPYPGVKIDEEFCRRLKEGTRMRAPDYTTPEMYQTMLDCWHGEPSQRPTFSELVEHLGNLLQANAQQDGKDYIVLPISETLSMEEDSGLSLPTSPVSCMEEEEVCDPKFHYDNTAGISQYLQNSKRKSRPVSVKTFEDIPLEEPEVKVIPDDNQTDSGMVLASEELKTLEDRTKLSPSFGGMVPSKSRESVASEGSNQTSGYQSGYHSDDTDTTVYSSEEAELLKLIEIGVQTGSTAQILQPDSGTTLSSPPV
SMILES,"IC50 [1, 5] [nM]","IC50 [2, 6] [nM]","IC50 [3, 7] [nM]","IC50 [4, 8] [nM]",IC50 ([1]; A-172 cells) [nM],IC50 ([2]; PC-3 cells) [nM],IC50 ([3]; HUVEC cells) [nM],IC50 ([4]; transfected 293A cells) [nM]
"COc1cc2nccc(Oc3ccc(NC(=O)c4nnc(C)c(-c5ccc(F)cc5)c4OC(C)C)cc3F)c2cc1OC [Compound 574, N-[4-(6,7-Dimethoxyquinolin-4-yl)oxy-3-fluorophenyl]-5-(4-fluorophenyl)-6-methyl-4-propan-2-yloxypyridazine-3-carboxamide]",< 100,< 100,< 100,< 100,–,–,–,–
"COc1cnc2c(Oc3ccc(NC(=O)c4c(C)c(Br)c(C)n(-c5ccc(F)cc5)c4=O)cc3)ccnc2c1 [Compound 312, 5-Bromo-1-(4-fluorophenyl)-N-[4-[(7-methoxy-1,5-naphthyridin-4-yl)oxy]phenyl]-4,6-dimethyl-2-oxopyridine-3-carboxamide]",< 100,< 100,100 to 300,< 100,–,–,–,–
"COc1cc2nccc(Oc3ccc(NC(=O)c4c(C)c(C)c(C)n(-c5ccc(F)cc5)c4=O)cc3)c2nc1OC [Compound 315, N-[4-[(6,7-Dimethoxy-1,5-naphthyridin-4-yl)oxy]phenyl]-1-(4-fluorophenyl)-4,5,6-trimethyl-2-oxopyridine-3-carboxamide]",< 100,< 100,< 100,< 100,–,–,–,–
"COc1cnc2c(Oc3ccc(NC(=O)c4c(C)nc(C)c(-c5ccc(F)c(OC)c5)c4O)cc3F)ccnc2c1 [Compound 688, N-[3-fluoro-4-[(7-methoxy-1,5-naphthyridin-4-yl)oxy]phenyl]-5-(4-fluoro-3-methoxyphenyl)-4-hydroxy-2,6-dimethylpyridine-3-carboxamide]",< 100,< 100,< 100,< 100,–,–,–,–
"CNC(=O)c1cc2nccc(Oc3cc(F)c(NC(=O)c4ccc(C)n(-c5ccc(F)cc5)c4=O)cc3F)c2cc1C [Compound 726, 4-[2,5-difluoro-4-[[1-(4-fluorophenyl)-6-methyl-2-oxopyridine-3-carbonyl]amino]phenoxy]-N,6-dimethylquinoline-7-carboxamide]",< 100,< 100,< 100,< 100,–,–,–,–
"COCCc1nc(C)c(-c2ccc(F)cc2)c(O)c1C(=O)Nc1ccc(Oc2ccnc3cc(OC)c(OC)nc23)c(F)c1 [Compound 785, N-[4-[(6,7-dimethoxy-1,5-naphthyridin-4-yl)oxy]-3-fluorophenyl]-5-(4-fluorophenyl)-4-hydroxy-2-(2-methoxyethyl)-6-methylpyridine-3-carboxamide]",< 100,< 100,< 100,< 100,–,–,–,–
"CCc1c(C)c(C(=O)Nc2ccc(Oc3ccnc4cc(OC)c(OC)nc34)c(F)c2)c(=O)n(-c2ccc(F)cc2)c1C [Compound 330, N-[4-[(6,7-dimethoxy-1,5-naphthyridin-4-yl)oxy]-3-fluorophenyl]-5-ethyl-1-(4-fluorophenyl)-4,6-dimethyl-2-oxopyridine-3-carboxamide]",< 100,< 100,> 300,< 100,–,–,–,–
"COc1cnc2c(Oc3ccc(NC(=O)c4c(C)c(F)c(C)n(-c5ccc(F)cc5)c4=O)cc3F)ccnc2c1 [Compound 326, 5-Fluoro-N-[3-fluoro-4-[(7-methoxy-1,5-naphthyridin-4-yl)oxy]phenyl]-1-(4-fluorophenyl)-4,6-dimethyl-2-oxopyridine-3-carboxamide]",< 100,< 100,100 to 300,< 100,–,–,–,–
"COCc1cnn(-c2ccc(F)cc2)c(=O)c1C(=O)Nc1ccc(Oc2ccnc3cc(OC)c(OC)nc23)c(F)c1 [Compound 533, N-[4-[(6,7-dimethoxy-1,5-naphthyridin-4-yl)oxy]-3-fluorophenyl]-2-(4-fluorophenyl)-5-(methoxymethyl)-3-oxopyridazine-4-carboxamide]",< 100,< 100,< 100,< 100,–,–,–,–
"C=C(C)c1cnc2c(Oc3ccc(NC(=O)c4nnc(C)c(-c5ccc(F)cc5)c4OCC)cc3F)ccnc2c1 [Compound 476, 4-ethoxy-5-(4-fluorophenyl)-N-[3-fluoro-4-[(7-prop-1-en-2-yl-1,5-naphthyridin-4-yl)oxy]phenyl]-6-methylpyridazine-3-carboxamide]",< 100,< 100,< 100,< 100,–,–,–,–
"C=C(C)c1cnc2c(Oc3ccc(NC(=O)c4nn(CC)c(C)c(-c5ccc(F)cc5)c4=O)cc3F)ccnc2c1 [Compound 475, 1-ethyl-5-(4-fluorophenyl)-N-[3-fluoro-4-[(7-prop-1-en-2-yl-1,5-naphthyridin-4-yl)oxy]phenyl]-6-methyl-4-oxopyridazine-3-carboxamide]",< 100,< 100,< 100,< 100,–,–,–,–
"COc1cnc2c(Oc3ccc(NC(=O)c4cnc(C)c(-c5ccc(F)c(C)c5)c4O)cc3F)ccnc2c1 [Compound 701, N-[3-fluoro-4-[(7-methoxy-1,5-naphthyridin-4-yl)oxy]phenyl]-5-(4-fluoro-3-methylphenyl)-4-hydroxy-6-methylpyridine-3-carboxamide]",< 100,< 100,< 100,< 100,–,–,–,–
"COc1cc2nccc(Oc3ccc(NC(=O)c4c(C)n(C)c(C)c(-c5ccc(F)c(C)c5)c4=O)cc3F)c2nc1OC [Compound 821, N-[4-[(6,7-dimethoxy-1,5-naphthyridin-4-yl)oxy]-3-fluorophenyl]-5-(4-fluoro-3-methylphenyl)-1,2,6-trimethyl-4-oxopyridine-3-carboxamide]",–,–,–,–,< 100,< 100,100 to 300,< 100
"COc1cnc2c(Oc3ccc(NC(=O)c4c(C)n(CC(F)F)cc(-c5ccc(F)c(C)c5)c4=O)cc3F)ccnc2c1 [Compound 814, 1-(2,2-difluoroethyl)-N-[3-fluoro-4-[(7-methoxy-1,5-naphthyridin-4-yl)oxy]phenyl]-5-(4-fluoro-3-methylphenyl)-2-methyl-4-oxopyridine-3-carboxamide]",–,–,–,–,< 100,< 100,> 300,< 100
"COc1cnc2c(Oc3ccc(NC(=O)c4c(C)nc(C)c(-c5ccc(S(C)(=O)=O)cc5)c4O)cc3F)ccnc2c1 [Compound 694, N-[3-fluoro-4-[(7-methoxy-1,5-naphthyridin-4-yl)oxy]phenyl]-4-hydroxy-2,6-dimethyl-5-(4-methylsulfonylphenyl)pyridine-3-carboxamide]",> 300,100 to 300,> 300,< 100,–,–,–,–
"COc1cnc2c(Oc3ccc(NC(=O)c4c(C)nc(C)c(-c5ccc(OC)c(F)c5)c4O)cc3F)ccnc2c1 [Compound 693, N-[3-fluoro-4-[(7-methoxy-1,5-naphthyridin-4-yl)oxy]phenyl]-5-(3-fluoro-4-methoxyphenyl)-4-hydroxy-2,6-dimethylpyridine-3-carboxamide]",> 300,100 to 300,< 100,< 100,–,–,–,–
"COc1cc2nccc(Oc3ccc(NC(=O)c4c(C)ncc(-c5ccc(F)c(F)c5)c4O)cc3F)c2nc1OC [Compound 796, 5-(3,4-difluorophenyl)-N-[4-[(6,7-dimethoxy-1,5-naphthyridin-4-yl)oxy]-3-fluorophenyl]-4-hydroxy-2-methylpyridine-3-carboxamide]",< 100,< 100,< 100,< 100,–,–,–,–
"COc1cc2nccc(Oc3ccc(NC(=O)c4nnc(C)c(-c5ccc(F)cc5)c4Cl)cc3F)c2nc1OC [Compound 488, 4-chloro-N-[4-[(6,7-dimethoxy-1,5-naphthyridin-4-yl)oxy]-3-fluorophenyl]-5-(4-fluorophenyl)-6-methylpyridazine-3-carboxamide]",100 to 300,> 300,> 300,< 100,–,–,–,–
"CNC(=O)Cc1nc2c(Oc3ccc(NC(=O)c4cnc(C)c(-c5ccc(F)cc5)c4O)cc3F)ccnc2cc1OC [Compound 570, N-[3-Fluoro-4-[[7-methoxy-6-[2-(methylamino)-2-oxoethyl]-1,5-naphthyridin-4-yl]oxy]phenyl]-5-(4-fluorophenyl)-4-hydroxy-6-methylpyridine-3-carboxamide]",< 100,< 100,< 100,< 100,–,–,–,–
"COc1nc2c(Oc3ccc(NC(=O)c4n[nH]c(C)c(-c5ccc(F)cc5C)c4=O)cc3F)ccnc2cc1C [Compound 473, N-[3-fluoro-4-[(6-methoxy-7-methyl-1,5-naphthyridin-4-yl)oxy]phenyl]-5-(4-fluoro-2-methylphenyl)-6-methyl-4-oxo-1H-pyridazine-3-carboxamide]",< 100,> 300,> 300,< 100,–,–,–,–
